Measurements reported in ChEMBL document CHEMBL4507305, “Data for DCP probe TP-024” (2021).
Activity calls are given as the source filed them. The calls are words filed in the database; no cut-off is given here.

What was measured:
[1] = biological target: Serine/threonine-protein kinase BRSK1 (Homo sapiens) (UniProt Q8TDC3); details: Compound concentration 1000.0 nM
[2] = biological target: T1, G protein-coupled receptor (Rattus norvegicus, UniProt Q9WU09); test: CHO-based cAMP assay (rat)
[3] = biological target: cAMP-dependent protein kinase catalytic subunit alpha (Homo sapiens) (UniProt P17612); details: Compound concentration 1000.0 nM
[4] = biological target: Serine/threonine-protein kinase Nek1 (Homo sapiens) (UniProt Q96PY6); details: Compound concentration 1000.0 nM
Serine/threonine-protein kinase Nek1 (Homo sapiens), sequence (Q96PY6 whole entry): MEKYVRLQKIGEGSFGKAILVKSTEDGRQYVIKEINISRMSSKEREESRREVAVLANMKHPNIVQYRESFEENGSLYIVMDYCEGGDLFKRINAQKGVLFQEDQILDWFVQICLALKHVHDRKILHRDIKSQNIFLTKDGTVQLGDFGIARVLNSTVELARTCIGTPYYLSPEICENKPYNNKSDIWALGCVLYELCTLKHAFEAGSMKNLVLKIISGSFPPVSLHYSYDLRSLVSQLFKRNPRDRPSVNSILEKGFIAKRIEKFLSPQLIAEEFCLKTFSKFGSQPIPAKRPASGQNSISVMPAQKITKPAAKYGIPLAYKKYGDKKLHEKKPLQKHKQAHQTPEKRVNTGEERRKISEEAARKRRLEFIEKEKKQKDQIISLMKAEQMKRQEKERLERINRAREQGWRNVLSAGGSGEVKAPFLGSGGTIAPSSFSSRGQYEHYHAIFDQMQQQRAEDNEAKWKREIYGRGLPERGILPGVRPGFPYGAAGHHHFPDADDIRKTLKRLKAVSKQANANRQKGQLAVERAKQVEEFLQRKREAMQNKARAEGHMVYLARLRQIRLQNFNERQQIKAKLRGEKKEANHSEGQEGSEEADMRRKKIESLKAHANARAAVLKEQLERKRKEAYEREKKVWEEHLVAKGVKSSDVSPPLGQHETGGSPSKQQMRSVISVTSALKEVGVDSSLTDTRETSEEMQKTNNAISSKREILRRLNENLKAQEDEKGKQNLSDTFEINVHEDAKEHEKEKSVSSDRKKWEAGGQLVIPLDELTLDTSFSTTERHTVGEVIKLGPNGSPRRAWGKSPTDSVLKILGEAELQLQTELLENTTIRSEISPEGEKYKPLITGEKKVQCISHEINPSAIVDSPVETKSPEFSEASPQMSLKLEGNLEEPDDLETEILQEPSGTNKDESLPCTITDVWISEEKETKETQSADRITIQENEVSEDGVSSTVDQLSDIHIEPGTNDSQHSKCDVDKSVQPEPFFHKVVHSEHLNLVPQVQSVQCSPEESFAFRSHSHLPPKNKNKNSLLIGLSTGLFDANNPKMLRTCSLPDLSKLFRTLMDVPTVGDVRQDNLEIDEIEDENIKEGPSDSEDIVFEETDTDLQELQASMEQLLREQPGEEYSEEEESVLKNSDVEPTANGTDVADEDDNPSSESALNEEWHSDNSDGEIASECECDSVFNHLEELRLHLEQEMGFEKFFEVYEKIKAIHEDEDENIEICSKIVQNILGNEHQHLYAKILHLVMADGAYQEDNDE

[5] = biological target: Cyclin-dependent kinase 8 (Homo sapiens) (UniProt P49336); details: Compound concentration 1000.0 nM
Cyclin-dependent kinase 8 (Homo sapiens), sequence (P49336 whole entry): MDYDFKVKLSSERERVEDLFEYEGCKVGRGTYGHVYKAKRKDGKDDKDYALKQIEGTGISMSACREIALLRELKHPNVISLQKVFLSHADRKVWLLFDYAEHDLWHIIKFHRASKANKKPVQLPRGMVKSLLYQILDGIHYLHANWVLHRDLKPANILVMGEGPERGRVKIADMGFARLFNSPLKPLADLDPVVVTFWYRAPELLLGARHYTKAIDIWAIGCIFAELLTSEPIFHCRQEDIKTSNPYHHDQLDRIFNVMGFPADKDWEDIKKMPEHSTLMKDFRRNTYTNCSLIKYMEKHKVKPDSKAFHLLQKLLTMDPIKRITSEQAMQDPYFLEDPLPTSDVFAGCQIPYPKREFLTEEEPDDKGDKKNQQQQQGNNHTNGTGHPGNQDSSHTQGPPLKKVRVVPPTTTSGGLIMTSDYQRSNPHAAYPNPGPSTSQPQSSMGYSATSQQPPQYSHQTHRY

[6] = biological target: Phosphatidylinositol 4-phosphate 5-kinase type-1 gamma (Homo sapiens) (UniProt O60331); details: Compound concentration 1000.0 nM
Phosphatidylinositol 4-phosphate 5-kinase type-1 gamma (Homo sapiens), sequence (O60331 whole entry): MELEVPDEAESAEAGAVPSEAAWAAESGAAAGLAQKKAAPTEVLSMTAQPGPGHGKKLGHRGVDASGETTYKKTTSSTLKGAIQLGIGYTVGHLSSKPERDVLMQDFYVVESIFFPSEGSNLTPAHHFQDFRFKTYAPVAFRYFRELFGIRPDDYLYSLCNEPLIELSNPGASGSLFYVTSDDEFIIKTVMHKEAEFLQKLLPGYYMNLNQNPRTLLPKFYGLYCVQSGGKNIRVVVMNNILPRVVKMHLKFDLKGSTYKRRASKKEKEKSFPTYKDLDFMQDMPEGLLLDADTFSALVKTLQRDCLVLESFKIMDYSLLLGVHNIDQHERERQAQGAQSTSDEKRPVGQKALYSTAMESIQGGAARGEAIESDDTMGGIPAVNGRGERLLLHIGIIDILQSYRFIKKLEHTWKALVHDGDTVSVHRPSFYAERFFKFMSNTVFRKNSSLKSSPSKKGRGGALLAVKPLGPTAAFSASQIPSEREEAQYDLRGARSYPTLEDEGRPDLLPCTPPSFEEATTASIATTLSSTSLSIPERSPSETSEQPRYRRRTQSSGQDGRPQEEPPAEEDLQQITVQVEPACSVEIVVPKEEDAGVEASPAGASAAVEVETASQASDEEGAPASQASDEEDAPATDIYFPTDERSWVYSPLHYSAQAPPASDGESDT

[7] = biological target: Mitogen-activated protein kinase kinase kinase kinase 4 (Homo sapiens) (UniProt O95819); details: Compound concentration 1000.0 nM
[8] = biological target: Serine/threonine-protein kinase WNK4 (Homo sapiens) (UniProt Q96J92); details: Compound concentration 1000.0 nM
[9] = biological target: Serine/threonine-protein kinase PAK 3 (Homo sapiens) (UniProt O75914); details: Compound concentration 1000.0 nM
[10] = biological target: Sodium-dependent dopamine transporter (Homo sapiens) (UniProt Q01959); details: Compound concentration 10.0 uM
[11] = biological target: Myosin-IIIb (Homo sapiens) (UniProt Q8WXR4); details: Compound concentration 1000.0 nM
Myosin-IIIb (Homo sapiens), sequence (Q8WXR4 whole entry): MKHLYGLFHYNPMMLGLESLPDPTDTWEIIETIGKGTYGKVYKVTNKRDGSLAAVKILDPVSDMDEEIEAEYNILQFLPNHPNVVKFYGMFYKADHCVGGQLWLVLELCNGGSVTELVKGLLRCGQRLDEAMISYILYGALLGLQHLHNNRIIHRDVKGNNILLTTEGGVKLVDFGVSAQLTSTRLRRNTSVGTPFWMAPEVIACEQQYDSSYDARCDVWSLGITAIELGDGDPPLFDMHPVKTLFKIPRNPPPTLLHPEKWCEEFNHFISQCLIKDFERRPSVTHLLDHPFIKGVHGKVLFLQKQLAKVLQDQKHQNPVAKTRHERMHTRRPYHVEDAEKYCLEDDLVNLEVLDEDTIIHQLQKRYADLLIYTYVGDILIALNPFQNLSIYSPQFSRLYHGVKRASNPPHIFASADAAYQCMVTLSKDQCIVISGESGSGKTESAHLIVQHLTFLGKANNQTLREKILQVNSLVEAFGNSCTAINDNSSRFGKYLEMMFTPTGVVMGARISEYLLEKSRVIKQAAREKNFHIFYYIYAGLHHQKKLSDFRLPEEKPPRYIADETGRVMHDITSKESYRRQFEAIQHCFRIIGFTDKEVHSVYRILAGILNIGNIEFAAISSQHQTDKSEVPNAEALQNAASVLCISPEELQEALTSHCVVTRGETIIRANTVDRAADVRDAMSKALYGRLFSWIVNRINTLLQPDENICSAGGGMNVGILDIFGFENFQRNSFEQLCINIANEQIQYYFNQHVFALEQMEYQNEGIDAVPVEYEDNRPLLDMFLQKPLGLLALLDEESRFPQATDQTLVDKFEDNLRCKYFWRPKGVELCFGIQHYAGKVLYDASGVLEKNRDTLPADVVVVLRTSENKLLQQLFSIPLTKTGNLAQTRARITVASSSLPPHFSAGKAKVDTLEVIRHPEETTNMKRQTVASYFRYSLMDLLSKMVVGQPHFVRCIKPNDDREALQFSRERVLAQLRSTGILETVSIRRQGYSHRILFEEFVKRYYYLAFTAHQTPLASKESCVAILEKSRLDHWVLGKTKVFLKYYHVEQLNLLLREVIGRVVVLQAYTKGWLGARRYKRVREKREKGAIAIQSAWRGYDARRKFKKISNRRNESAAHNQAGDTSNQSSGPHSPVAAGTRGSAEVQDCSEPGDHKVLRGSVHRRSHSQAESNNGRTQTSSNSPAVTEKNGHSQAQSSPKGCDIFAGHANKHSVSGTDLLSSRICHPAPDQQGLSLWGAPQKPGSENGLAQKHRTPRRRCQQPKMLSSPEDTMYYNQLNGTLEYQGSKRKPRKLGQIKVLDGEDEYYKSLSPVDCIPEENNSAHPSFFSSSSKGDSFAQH

[12] = biological target: SRSF protein kinase 2 (Homo sapiens) (UniProt P78362); details: Compound concentration 1000.0 nM
SRSF protein kinase 2 (Homo sapiens), sequence (P78362 whole entry, looked up): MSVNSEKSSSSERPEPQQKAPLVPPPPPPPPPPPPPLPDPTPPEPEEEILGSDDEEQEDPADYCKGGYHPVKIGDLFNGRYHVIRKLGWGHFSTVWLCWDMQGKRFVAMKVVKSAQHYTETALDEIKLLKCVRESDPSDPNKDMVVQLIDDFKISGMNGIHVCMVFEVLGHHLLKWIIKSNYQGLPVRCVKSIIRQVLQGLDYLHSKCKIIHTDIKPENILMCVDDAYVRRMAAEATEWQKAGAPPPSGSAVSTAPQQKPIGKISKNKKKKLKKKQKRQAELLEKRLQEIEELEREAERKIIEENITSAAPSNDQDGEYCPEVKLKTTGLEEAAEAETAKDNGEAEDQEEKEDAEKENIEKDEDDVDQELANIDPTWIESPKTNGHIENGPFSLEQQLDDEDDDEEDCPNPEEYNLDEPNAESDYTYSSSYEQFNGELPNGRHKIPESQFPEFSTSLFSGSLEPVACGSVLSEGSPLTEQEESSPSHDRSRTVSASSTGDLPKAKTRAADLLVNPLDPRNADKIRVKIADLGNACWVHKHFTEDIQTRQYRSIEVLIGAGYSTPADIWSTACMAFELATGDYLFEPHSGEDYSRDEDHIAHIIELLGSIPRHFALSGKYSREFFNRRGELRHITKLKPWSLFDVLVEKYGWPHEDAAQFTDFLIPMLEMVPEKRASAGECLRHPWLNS

[13] = biological target: T1, G protein-coupled receptor; test: cAMP increase in rat primary cultured striatal neurons
[14] = biological target: Testis-specific serine/threonine-protein kinase 3 (Homo sapiens) (UniProt Q96PN8); details: Compound concentration 1000.0 nM
Testis-specific serine/threonine-protein kinase 3 (Homo sapiens), sequence (Q96PN8 whole entry): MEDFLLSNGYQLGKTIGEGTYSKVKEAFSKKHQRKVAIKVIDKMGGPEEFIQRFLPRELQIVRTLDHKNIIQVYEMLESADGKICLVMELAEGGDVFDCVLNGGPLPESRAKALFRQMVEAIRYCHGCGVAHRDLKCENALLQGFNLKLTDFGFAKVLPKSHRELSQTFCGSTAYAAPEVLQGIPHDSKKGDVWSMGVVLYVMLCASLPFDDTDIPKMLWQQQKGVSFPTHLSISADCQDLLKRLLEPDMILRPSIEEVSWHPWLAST

[15] = biological target: Tyrosine-protein kinase receptor TYRO3 (Homo sapiens) (UniProt Q06418); details: Compound concentration 1000.0 nM
[16] = biological target: Megakaryocyte-associated tyrosine-protein kinase (Homo sapiens) (UniProt P42679); details: Compound concentration 1000.0 nM
[17] = biological target: Rho-associated protein kinase 1 (Homo sapiens) (UniProt Q13464); details: Compound concentration 1000.0 nM
[18] = biological target: Dual specificity mitogen-activated protein kinase kinase 3 (Homo sapiens) (UniProt P46734); details: Compound concentration 1000.0 nM
[19] = biological target: Muscarinic acetylcholine receptor M3 (Homo sapiens) (UniProt P20309); details: Compound concentration 10.0 uM
[20] = biological target: Serine/threonine-protein kinase PLK1 (Homo sapiens) (UniProt P53350); details: Compound concentration 1000.0 nM
[21] = biological target: Ribosomal protein S6 kinase alpha-4 (Homo sapiens) (UniProt O75676); details: Compound concentration 1000.0 nM
[22] = biological target: G-protein coupled receptor 52 (Homo sapiens, UniProt Q9Y2T5); test: CHO-based cAMP assay (human); assay type: functional

T1 sequence (Q9WU09 whole entry): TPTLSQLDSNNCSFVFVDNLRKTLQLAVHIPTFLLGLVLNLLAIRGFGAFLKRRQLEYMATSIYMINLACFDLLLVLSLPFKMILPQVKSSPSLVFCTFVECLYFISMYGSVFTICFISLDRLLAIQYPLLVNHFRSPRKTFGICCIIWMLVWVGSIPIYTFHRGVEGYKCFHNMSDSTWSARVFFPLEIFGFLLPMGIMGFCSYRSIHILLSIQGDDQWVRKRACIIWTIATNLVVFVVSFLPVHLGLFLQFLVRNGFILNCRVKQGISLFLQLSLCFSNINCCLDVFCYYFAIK

Structure (SMILES) | residual activity [1] [%] | residual activity [3] [%] | residual activity [4] [%] | residual activity [5] [%] | residual activity [6] [%] | residual activity [7] [%] | residual activity [8] [%] | residual activity [9] [%] | residual activity [11] [%] | residual activity [12] [%] | residual activity [14] [%] | residual activity [15] [%] | residual activity [16] [%] | residual activity [17] [%] | residual activity [18] [%] | residual activity [20] [%] | residual activity [21] [%] | further results
Cc1cc(-n2nc(Cc3cc(F)cc(C(F)(F)F)c3)nc2C)ccc1C(N)=O [TP-024] | 100 | 100 | 54 | 97 | 66 | 100 | 100 | 100 | 100 | 100 | 55 | 100 | 100 | 100 | 100 | 100 | 100 | EC50 [2]: 134 nM (active); inhibition [10]: 7.33%; EC50 [13]: 151 nM (active); inhibition [19]: 1.72%
Cc1nc(Cc2cccc(C(F)(F)F)c2)sc1-c1ccc(C(N)=O)nc1 [TP-024n] | 100 | 75 | 41 | 100 | 84 | 80 | 100 | 100 | 100 | 100 | 100 | 99 | 100 | 69 | 93 | 100 | 100 | EC50 [22]: > 1000 nM (not active)
